Among the data in US20260130850A1, “TRANSDERMAL DELIVERY FORMULATIONS AND METHODS FOR THE MANUFACTURE THEREOF” (LIFEACTIVE, INC., priority 2023, published 2026) are pKa, pKa1 and pKa3 values, retold here.

For orientation: pKa means the negative logarithm of the acid dissociation constant.

A short description of series [1]: Acidic dissociation constants (pKa) of strong and weak organic acids. Format: physicochemical. To be noted: water; in H2O at ~15-20° C.; Table 2 weak organic acids; read-out: Median pKa.
Excerpt: As used herein, the term “pKa” refers to acid dissociation constant (Ka) of a solution. […] The quantitative behavior of acids and bases in solution can be understood only if their pKa values are known. pKa describes the acidity of a particular molecule. It measures the strength of an acid by how tightly a proton is held by a Bronsted acid. The lower the value of pKa, the stronger the acid and the greater its ability to donate its protons. describe the acidity of a particular molecule Ka denotes the acid dissociation constant. It measures how completely an acid dissociates in an aqueous solution. The larger the value of Ka, the stronger the acid as acid largely dissociates into its ions and has lower pKa value.
The conditions of series [2]: in H2O at ~15-20° C.; Table 2 weak organic acids; cited from earlier work.

`O=c1[nH]c(=O)c2[nH]c(=O)[nH]c2[nH]1` [Uric Acid]: the pKa in series [1] is 5.6. For the same compound, the pKa1 in series [2] is reported as 5.6.
With Citric Acid, in series [2], the pKa3 is on record as 6.40.
